Read-outs that look alike come from different tables or passages of the source. Where a SMILES comes first, the peptide text is derived from it. Bridges are numbered along the chain shown (N, C = ends). [ ]: non-standard residue; d: D form. The star is where a group is joined. hPhe(3,5-F2-4-CF3) = N[C@@H](CCc1cc(F)c(C(F)(F)F)c(F)c1)C(=O)O; hPhe(3-Cl-4-CF3) = N[C@@H](CCc1ccc(C(F)(F)F)c(Cl)c1)C(=O)O; NPrPhe(4-CF3) = CCCN[C@@H](Cc1ccc(C(F)(F)F)cc1)C(=O)O; NMeGly(cPent) = CN[C@H](C(=O)O)C1CCCC1; αMeCha = C[C@](N)(CC1CCCCC1)C(=O)O; Hyp = O=C(O)[C@@H]1C[C@@H](O)CN1; Gly(cBu) = N[C@H](C(=O)O)C1CCC1; NMeD = CN[C@@H](CC(=O)O)C(=O)O; NMeL = CN[C@@H](CC(C)C)C(=O)O; Morpholide = C1CN(*)CCO1; NMeA = CN[C@@H](C)C(=O)O; Ac5c = NC1(C(=O)O)CCCC1; Aze = O=C(O)[C@@H]1CCN1; X24 = CC1(C)CCN(*)C1; Sar = CNCC(=O)O
Tests used:
[1] = molecular target: GDP-bound NRAS wild-type protein (Homo sapiens, UniProt P01111); assay: Binding to NRAS by surface plasmon resonance (SPR), Single Cycle Kinetics; conditions: for NRAS/KRAS (ratio of KD value for NRAS to KD value for KRAS) / NRAS/KRAS (ratio of KD value with respect to NRAS to KD value with respect to KRAS): SPR, GDP-bound NRAS wild-type protein vs GDP-bound KRAS wild-type protein
[2] = molecular target: GDP-bound HRAS wild-type protein (Homo sapiens, UniProt P01112); assay: Binding to HRAS by surface plasmon resonance (SPR), Single Cycle Kinetics; conditions: for HRAS/KRAS (ratio of KD value for HRAS to KD value for KRAS) / HRAS/KRAS (ratio of KD value with respect to HRAS to KD value with respect to KRAS): SPR, GDP-bound HRAS wild-type protein vs GDP-bound KRAS wild-type protein
[3] = molecular target: GDP-bound KRAS wild-type protein (Homo sapiens, UniProt P01116); assay: Binding to KRAS by surface plasmon resonance (SPR), Single Cycle Kinetics; conditions: GDP-bound KRAS wild-type protein, read-out: KRAS KD
[4] = SPR Single Cycle Kinetics, 1:1 binding model

Chain of GDP-bound KRAS wild-type protein (P01116 whole entry): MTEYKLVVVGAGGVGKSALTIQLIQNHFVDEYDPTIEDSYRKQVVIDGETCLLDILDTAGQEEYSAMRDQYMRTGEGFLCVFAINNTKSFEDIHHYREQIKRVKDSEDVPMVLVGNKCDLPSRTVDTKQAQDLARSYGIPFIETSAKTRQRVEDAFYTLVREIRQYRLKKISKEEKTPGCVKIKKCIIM
Chain of GDP-bound NRAS wild-type protein (P01111 whole entry): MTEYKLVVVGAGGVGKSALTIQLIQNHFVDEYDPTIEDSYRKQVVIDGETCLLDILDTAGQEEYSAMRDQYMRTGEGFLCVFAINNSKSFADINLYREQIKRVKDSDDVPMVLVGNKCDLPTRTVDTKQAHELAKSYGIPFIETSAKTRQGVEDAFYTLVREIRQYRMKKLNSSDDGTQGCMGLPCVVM
Chain of GDP-bound HRAS wild-type protein (P01112 whole entry): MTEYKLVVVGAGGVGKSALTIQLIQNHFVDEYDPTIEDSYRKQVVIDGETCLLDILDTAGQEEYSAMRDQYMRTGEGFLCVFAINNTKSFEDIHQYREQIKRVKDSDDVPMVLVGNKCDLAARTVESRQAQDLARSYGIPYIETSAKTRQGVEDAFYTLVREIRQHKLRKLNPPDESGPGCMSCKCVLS

Row | Kd [3, 4] | Kd ([3]; SPR, Single Cycle Kinetics) | Compound | NRAS/KRAS (ratio of KD value for NRAS to KD value for KRAS) [1] | HRAS/KRAS (ratio of KD value for HRAS to KD value for KRAS) [2] | also measured
1 |  | 0.22 nM | CCC[C@H]1C(=O)N[C@@H]([C@@H](C)CC)C(=O)N(C)CC(=O)N(C)[C@H]2C/C=C\CCN(C2=O)[C@@H](Cc2ccc(C(F)(F)F)cc2)C(=O)N(C)CC(=O)N[C@@H](CCc2ccc(C(F)(F)F)c(OC)c2)C(=O)N2C[C@H](OCC)C[C@H]2C(=O)NC2(CC(C)(C)C2)C(=O)N(C)[C@@H](C(CC)CC)C(=O)N(C)[C@H](C(=O)N(C)C)CC(=O)N1C [PP2160] | A (a compound having 10 or more and less than 20 is denoted as A) | A (a compound having 10 or more and less than 20 is denoted as A) | 
2 |  | 0.25 nM | CCO[C@@H]1C[C@H]2C(=O)NC3(CC(C)(C)C3)C(=O)N(C)[C@@H](C(CC)CC)C(=O)N(C)[C@H](C(=O)N3CCCC3)CC(=O)N(C)[C@@H](COC)C(=O)N[C@@H]([C@@H](C)CC)C(=O)N(C)CC(=O)N(C)[C@H]3C/C=C\CCN(C3=O)[C@@H](Cc3ccc(C(F)(F)F)cc3)C(=O)N(C)CC(=O)N[C@@H](CCc3cc(F)c(C(F)(F)F)c(F)c3)C(=O)N2C1 [PP2123] | A (a compound having 10 or more and less than 20 is denoted as A) | A (a compound having 10 or more and less than 20 is denoted as A) | 
3 |  | 0.093 nM | C#CC[C@H]1C(=O)N[C@@H]([C@@H](C)CC)C(=O)N(C)CC(=O)N(C)[C@H]2C/C=C\CCN(C2=O)[C@@H](Cc2ccc(C(F)(F)F)cc2)C(=O)N(C)CC(=O)N[C@@H](CCc2ccc(C(F)(F)F)c(OC)c2)C(=O)N2C[C@H](OCC)C[C@H]2C(=O)NC2(CCC2)C(=O)N(C)[C@@H](C2CCCC2)C(=O)N(C)[C@H](C(=O)N(C)CCC)CC(=O)N1C [PP2059] | A (a compound having 10 or more and less than 20 is denoted as A) | A (a compound having 10 or more and less than 20 is denoted as A) | 
4 | 0.29 nM |  | CCC[C@H]1C(=O)N[C@@H]([C@@H](C)CC)C(=O)N(C)CC(=O)N(C)[C@H]2C/C=C\CCN(C2=O)[C@@H](Cc2ccc(C(F)(F)F)cc2)C(=O)N(C)CC(=O)N[C@@H](CCc2ccc3sc(C)c(C)c3c2)C(=O)N2C[C@H](OCC)C[C@H]2C(=O)NC2(CC(C)(C)C2)C(=O)N(C)[C@@H](C2CCCC2)C(=O)N(C)[C@H](C(=O)N(C)C)CC(=O)N1C [PP2889] |  |  | NRAS/KRAS (ratio of KD value with respect to GDP-bound NRAS wild-type protein to KD value with respect to KRAS) ([1]; SPR KD ratio NRAS/KRAS, class symbols): A (a compound having 10 or more and less than 20 is denoted as A); HRAS/KRAS (ratio of KD value with respect to GDP-bound HRAS wild-type protein to KD value with respect to KRAS) ([2]; SPR KD ratio HRAS/KRAS, class symbols): A (a compound having 10 or more and less than 20 is denoted as A)
5 |  | 0.33 nM | CCO[C@@H]1C[C@H]2C(=O)NC3(CC(C)(C)C3)C(=O)N(C)[C@@H](C(CC)CC)C(=O)N(C)[C@H](C(=O)N3CCCC3)CC(=O)N(C)[C@@H](COC)C(=O)N[C@@H]([C@@H](C)CC)C(=O)N(C)CC(=O)N(C)[C@H]3C/C=C\CCN(C3=O)[C@@H](Cc3ccc(C(F)(F)F)cc3)C(=O)N(C)CC(=O)N[C@@H](CCc3ccc(C(F)(F)F)c(OC)c3)C(=O)N2C1 [PP2159] | AA (a compound having 20 or more is denoted as AA) | A (a compound having 10 or more and less than 20 is denoted as A) | 

The next lines start with the compound.

Row | Compound | Kd [3, 4] | Kd ([3]; SPR, Single Cycle Kinetics) | NRAS/KRAS (ratio of KD value for NRAS to KD value for KRAS) [1] | HRAS/KRAS (ratio of KD value for HRAS to KD value for KRAS) [2] | also measured
6 | CCCN1C(=O)CN(C)C(=O)[C@@H]2CCN2C(=O)[C@H]([C@@H](C)CC)NC(=O)[C@H](CC(C)C)N(C)C(=O)C[C@@H](C(=O)N2CCOCC2)N(C)C(=O)[C@H](C2CCCC2)N(C)C(=O)C2(CCCC2)NC(=O)[C@@H]2C[C@@H](OCC)CN2C(=O)[C@H](CCc2ccc(C(F)(F)F)c(Cl)c2)NC(=O)CN(C)C(=O)[C@@H]1Cc1ccc(C(F)(F)F)cc1 [PP0310] ([NMeL]I[Aze][Sar][NPrPhe(4-CF3)][Sar][hPhe(3-Cl-4-CF3)][Hyp](Et)[Ac5c][NMeGly(cPent)][NMeD]-Morpholide; lactam N-11) | 0.45 nM |  | B (a compound having 3 or more and less than 10 is denoted as B) | C (A compound having a KD ratio of 0.1 or more and less than 3 is denoted as C) | 
7 | CCO[C@@H]1C[C@H]2C(=O)NC3(CCC3)C(=O)N(C)[C@@H](C3CCCC3)C(=O)N(C)[C@H](C)CC(=O)N(C)[C@@H](CC)C(=O)N[C@@H]([C@@H](C)CC)C(=O)N(C)CC(=O)N(C)[C@H]3C/C=C\CCN(C3=O)[C@@H](Cc3ccc(C(F)(F)F)cc3)C(=O)N(C)CC(=O)N[C@@H](CCc3cc(F)c(C(F)(F)F)c(F)c3)C(=O)N2C1 [PP1095] |  | 0.18 nM | B (a compound having 3 or more and less than 10 is denoted as B) | B (a compound having 3 or more and less than 10 is denoted as B) | 
8 | CCCN1C(=O)[C@@H]2CCN2C(=O)[C@H](C)N(C)C(=O)[C@H]([C@@H](C)CC)NC(=O)[C@H](CC(C)C)N(C)C(=O)C[C@@H](C(=O)N2CCC(C)(C)C2)N(C)C(=O)[C@H](C2CCCC2)N(C)C(=O)C2(CCCC2)NC(=O)[C@@H]2CCCN2C(=O)[C@H](CCc2ccc(C(F)(F)F)c(Cl)c2)NC(=O)CN(C)C(=O)[C@@H]1Cc1ccc(C(F)(F)F)cc1 [PP0186] ([NMeL]I[NMeA][Aze][NPrPhe(4-CF3)][Sar][hPhe(3-Cl-4-CF3)]P[Ac5c][NMeGly(cPent)][NMeD]-X24; lactam N-11) | 1.7 nM |  | C (A compound having a KD ratio of 0.1 or more and less than 3 is denoted as C) | B (a compound having 3 or more and less than 10 is denoted as B) | 
9 | CC[C@H](C)[C@@H]1NC(=O)[C@H](CC(C)C)N(C)C(=O)C[C@@H](C(=O)N(C)C)N(C)C(=O)[C@H](C2CCCC2)N(C)C(=O)C2(CCC2)NC(=O)[C@@H]2CC(F)(F)CN2C(=O)[C@H](CCc2ccc(C(F)(F)F)c(Cl)c2)NC(=O)CN(C)C(=O)[C@H](Cc2ccc(F)cc2)N2CCCCC[C@@H](C2=O)N(C)C(=O)CN(C)C1=O [PP0973] |  | 0.085 nM | B (a compound having 3 or more and less than 10 is denoted as B) | B (a compound having 3 or more and less than 10 is denoted as B) | 
10 | CCO[C@@H]1C[C@H]2C(=O)NC3(CCCC3)C(=O)N(C)[C@@H](C3CCCC3)C(=O)N(C)[C@H](C(=O)N(C)C)CC(=O)N(C)[C@@H](CC)C(=O)N[C@@H]([C@@H](C)CC)C(=O)N(C)CC(=O)N(C)[C@H]3C[C@H](C)C(C)CN(C3=O)[C@@H](Cc3ccc(C(F)(F)F)cc3)C(=O)N(C)CC(=O)N[C@@H](CCc3cc(F)c(C(F)(F)F)c(F)c3)C(=O)N2C1 (stereo partly drawn) [PP1347] |  |  |  |  | NRAS/KRAS (ratio of KD value for NRAS to KD value for KRAS) ([1]; KD ratio class): B (a compound having 3 or more and less than 10 is denoted as B); HRAS/KRAS (ratio of KD value for HRAS to KD value for KRAS) ([2]; KD ratio class): B (a compound having 3 or more and less than 10 is denoted as B); Kd ([3]; SPR, Single Cycle Kinetics, 1:1 binding model): 0.017 nM
11 | CCCN1C(=O)CN(C)C(=O)CN(C)C(=O)[C@H](C2CCC2)NC(=O)[C@H](CC(C)C)N(C)C(=O)C[C@@H](C(=O)N2CCOCC2)N(C)C(=O)[C@H](C2CCCC2)N(C)C(=O)C2(CCCC2)NC(=O)[C@@H]2CCCN2C(=O)[C@H](CCc2ccc(C(F)(F)F)c(Cl)c2)NC(=O)CN(C)C(=O)[C@@H]1Cc1ccc(C(F)(F)F)cc1 [PP0250] ([NMeL][Gly(cBu)][Sar][Sar][NPrPhe(4-CF3)][Sar][hPhe(3-Cl-4-CF3)]P[Ac5c][NMeGly(cPent)][NMeD]-Morpholide; lactam N-11) | 0.12 nM |  | B (a compound having 3 or more and less than 10 is denoted as B) | C (A compound having a KD ratio of 0.1 or more and less than 3 is denoted as C) | 
12 | CC(C)C[C@H]1C(=O)N[C@@H](C2CCC2)C(=O)N(C)CC(=O)N(C)[C@H]2CCCCCN(C2=O)[C@@H](Cc2ccc(C(F)(F)F)cc2)C(=O)N(C)CC(=O)N[C@@H](CCc2cc(F)c(C(F)(F)F)c(F)c2)C(=O)N2CCC[C@H]2C(=O)NC2(CCCC2)C(=O)N(C)[C@@H](C2CCCC2)C(=O)N(C)[C@H](C(=O)N2CCOCC2)CC(=O)N1C [PP0522] | 2.8 nM |  |  |  | NRAS/KRAS (ratio of KD value with respect to NRAS to KD value with respect to KRAS) [1]: B (a compound having 3 or more and less than 10 is denoted as B); HRAS/KRAS (ratio of KD value with respect to HRAS to KD value with respect to KRAS) [2]: B (a compound having 3 or more and less than 10 is denoted as B)
13 | CCCN1C(=O)CN(C)C(=O)CN(C)C(=O)[C@H]([C@@H](C)CC)NC(=O)[C@H](CC(C)C)N(C)C(=O)C[C@@H](C(=O)N2CCOCC2)N(C)C(=O)[C@H](C2CCCC2)N(C)C(=O)[C@](C)(CC2CCCCC2)NC(=O)[C@@H]2CCCN2C(=O)[C@H](CCc2cc(F)c(C(F)(F)F)c(F)c2)NC(=O)CN(C)C(=O)[C@@H]1Cc1ccc(C(F)(F)F)cc1 [PP0760] ([NMeL]I[Sar][Sar][NPrPhe(4-CF3)][Sar][hPhe(3,5-F2-4-CF3)]P[αMeCha][NMeGly(cPent)][NMeD]-Morpholide; lactam N-11) | 16 nM |  |  |  | NRAS/KRAS (ratio of KD value with respect to NRAS to KD value with respect to KRAS) [1]: B (a compound having 3 or more and less than 10 is denoted as B); HRAS/KRAS (ratio of KD value with respect to HRAS to KD value with respect to KRAS) [2]: C (A compound having a KD ratio of 0.1 or more and less than 3 is denoted as C)

— patent publication US20240158446A1, “CYCLIC COMPOUND HAVING SELECTIVE INHIBITORY ACTION ON KRAS OVER HRAS AND NRAS” (CHUGAI SEIYAKU KABUSHIKI KAISHA, priority 2021, published 2024)
